Values after ≈ are worked out from the molar mass of the structure shown. A value given as a limit tells only on which side of the number the result lay.

By solubility (kinetic) is commonly meant the concentration staying in solution when a stock, usually in DMSO, is diluted into the medium.

The conditions of the data set: buffer; pH 7.4; 200.0 µM.
`COc1cc(SC)ccc1C(=O)OCC(=O)N1CC(=O)Nc2ccccc21`: the kinetic solubility turned out to be 0.0176 mg/mL (≈ 45.5 µM).
`CNC(=S)N1CCC(Cc2ccccc2)CC1` had a solubility (kinetic) of 0.0369 mg/mL (≈ 149 µM).
Compound `CC1(C)CC(NC(=O)c2ccccc2F)CC(C)(C)N1` returned a kinetic solubility of more than 0.0418 mg/mL.
`Cc1cc(C)c2ccc(/C=N/O)nc2c1O` showed a kinetic solubility of 0.0028 mg/mL (≈ 12.9 µM).
For `CCc1nc2sc3c(Cl)ncnc3c2c2c1CCCC2` the value was less than 0.0002 mg/mL.
Take `N#C/C(=C(/O)CO/N=C/c1ccccc1Cl)c1nc2ccccc2[nH]1`: the kinetic solubility was less than 0.0002 mg/mL.
For `O=[N+]([O-])c1ccccc1OCCOc1ccccc1[N+](=O)[O-]` the value was less than 0.0003 mg/mL; for `O=C(CN1CCCCCC1)Nc1c(Cl)cc(Cl)cc1Cl`, 0.0421 mg/mL (≈ 125 µM); for `Cc1nc2ccccn2c1C(=O)CSc1cccc(Cl)c1`, 0.0039 mg/mL (≈ 12.3 µM).
Regarding `Cc1ccccc1C(=O)NC1CCN(C(=O)Nc2ccc(F)cc2)CC1`, the kinetic solubility is 0.0215 mg/mL (≈ 60.5 µM).
In the case of `OCCNc1nc(N2CCOCC2)nc(N2CCOCC2)n1`, the solubility (kinetic) worked out at 0.0447 mg/mL (≈ 144 µM).
In turn, `COC(=O)c1cnc(SCC(=O)c2ccccc2)n1C` registered a solubility (kinetic) of more than 0.0436 mg/mL.
For the compound `O=C1Nc2ccccc2C(=O)N2CCCCC12` (configuration not stated), the kinetic solubility turned out to be 0.0193 mg/mL (≈ 83.8 µM).
For `CC1Oc2ccccc2N(CC(=O)NCCN2CCOCC2)C1=O` (configuration not stated) the value was more than 0.05 mg/mL.
Consider `Cc1cc(C)c2c(N)c(C(=O)Nc3ccc([N+](=O)[O-])cc3)sc2n1`, for which the kinetic solubility is less than 0.0002 mg/mL.
Regarding `Cc1ccc(NC(=O)C2OCCc3ccccc32)cc1Cl` (configuration not stated), the solubility (kinetic) was less than 0.0006 mg/mL.
Compound `c1ccc(-c2ccc(-c3ccncn3)cc2)cc1` showed a kinetic solubility of less than 0.0002 mg/mL.
Compound `C[C@@H](C(=O)Nc1nc2ccccc2s1)N1C(=O)C2CC=CCC2C1=O` (some centres not stated) showed a solubility (kinetic) of 0.0452 mg/mL (≈ 127 µM).
As to `S=C(NCc1ccc(Cl)cc1)NN1CCOCC1`, the kinetic solubility is more than 0.0429 mg/mL.
`CC(=O)Nc1cccc(C(=O)N2CCN(S(=O)(=O)Cc3ccccc3)CC2)c1` gave a kinetic solubility of more than 0.0602 mg/mL.
`COc1ccc(C(=O)COC(=O)c2cccnc2SC)cc1` yielded a solubility (kinetic) of less than 0.0007 mg/mL.
Consider `COc1ccccc1NC(=O)c1ccc(COc2ccccc2OC)cc1`, for which the solubility (kinetic) was 0.0031 mg/mL (≈ 8.53 µM).
Consider `COc1ccc(Br)cc1CN1CCSCC1`, for which the kinetic solubility was 0.0293 mg/mL (≈ 96.9 µM).
Consider `Cc1ccc(S(=O)(=O)N2CCOCC2)cc1NC(=O)c1cc2ccccc2oc1=O`, for which the solubility (kinetic) stood at 0.0011 mg/mL (≈ 2.57 µM).
As for `Cc1ccc(C)c(-c2csc(NC(=O)C3=COCCO3)n2)c1`, the figure is 0.0113 mg/mL (≈ 35.7 µM); as for `COc1ccc(S(N)(=O)=O)cc1C(=O)OCC(=O)N1c2ccccc2NC(=O)C1(C)C`, more than 0.0671 mg/mL; as for `O=C(Cc1ccccc1)N/N=C/c1ccc[nH]1`, more than 0.0341 mg/mL.
The compound `CCCOc1ccc(/C=C/c2c([N+](=O)[O-])c(=O)n(C)c(=O)n2C)cc1` gave a solubility (kinetic) of less than 0.0002 mg/mL.
As for `O=C(c1cc2cccc([N+](=O)[O-])c2oc1=O)N1CCOCC1`, the kinetic solubility worked out at 0.0406 mg/mL (≈ 133 µM).
For `O=C(O)c1cc([N+](=O)[O-])ccc1NCc1cccnc1`, the kinetic solubility was more than 0.041 mg/mL.
Compound `O=[N+]([O-])c1ccc(-n2ccnc2)cc1` displayed a kinetic solubility of more than 0.0284 mg/mL.
`COc1cc(C)c(Cl)cc1S(=O)(=O)NCc1ccccn1` had a kinetic solubility of 0.0345 mg/mL (≈ 106 µM).
The compound `O=C(COc1ccc(C2SCCS2)cc1)Nc1ccc(Cl)cc1` gave a kinetic solubility of less than 0.0008 mg/mL.
`Cn1cnnc1SCC(=O)NNC(=O)c1ccc([N+](=O)[O-])cc1` registered a solubility (kinetic) of more than 0.0504 mg/mL.
As for `Cc1ccc[n+](CC(=O)Nc2ccc(C)c(C)c2)c1.[Cl-]`, the figure is more than 0.0436 mg/mL.
As for `Nc1ccc(C(=O)O)cc1[N+](=O)[O-]`, the figure is more than 0.0273 mg/mL; as for `CCN(CC)CCOC(=O)C(c1ccccc1)c1ccccc1.Cl`, more than 0.0522 mg/mL; as for `CN(C)c1cc[n+](CC(=O)Nc2ccccc2C(F)(F)F)cc1.[Cl-]`, more than 0.054 mg/mL.
Compound `COc1ccc(CNC(=O)CSc2nc(SC)ns2)cc1` showed a kinetic solubility of 0.0264 mg/mL (≈ 77.3 µM).
As for `CCCOc1ccc(C(CC(=O)O)NC(=O)Cc2ccccc2)cc1` (configuration not stated), the figure is more than 0.0512 mg/mL; as for `Cc1cccc(OCC(=O)N2CCCc3ccccc32)c1`, 0.0303 mg/mL (≈ 108 µM); as for `Cc1csc(Nc2ccc(Cl)cc2)n1`, 0.0105 mg/mL (≈ 46.7 µM).
In the case of `COc1ccccc1N1C(=O)C=C(Sc2nc(C)cc(C)n2)C1=O`, the solubility (kinetic) was found to be 0.0091 mg/mL (≈ 26.7 µM).
As for `Cc1ccc(NC(=O)Cn2cc(C(=O)C3CC3)c3ccccc32)c(C)c1`, the figure is less than 0.0004 mg/mL; as for `CC1=C(C(=O)O)N2C(=O)C(NC(=O)c3ccccc3Cl)C2SC1` (configuration not stated), more than 0.0529 mg/mL.
For `COc1ccc(C(=O)Nc2cccc3c2CCCC3)cc1` the value was less than 0.0006 mg/mL; for `Cc1cc(SCc2cccc([N+](=O)[O-])c2)nc(=O)[nH]1`, 0.0353 mg/mL (≈ 127 µM).
`Cc1cc(C)nc(N2Cc3ccccc3C2=N)n1` registered a solubility (kinetic) of more than 0.0357 mg/mL.
With `Cc1cc(/C=C2/C(=O)NC(=O)N(C)C2=O)c(C)n1-c1ccccc1`, the kinetic solubility was determined as 0.0011 mg/mL (≈ 3.4 µM).
In turn, `Cc1ccc(NC(=O)c2cc3c(s2)CCCC3)cc1` came in with a solubility (kinetic) of 0.004 mg/mL (≈ 14.7 µM).
As for `COCCCn1c(=O)c2ccccc2n(Cc2cccc(C)c2)c1=O`, the figure is 0.0426 mg/mL (≈ 126 µM); as for `Cc1ccc(NC(=O)C2CC(=O)N(CCc3ccccc3)C2)c(C)c1` (configuration not stated), 0.042 mg/mL (≈ 125 µM).

The values are drawn from PubChem BioAssay AID1996.
